A short description of this data set: Clinical study 5.16: serum concentration of tilmicosin after oral administration. The format is in vivo. Conditions: oral 20 mg/kg, gelatin capsule with the gel of Example 5.14. The procedure:
Tilmicosin was orally administered to a dog using the pharmaceutical composition of Example 5.14. A sufficient amount of the gel of example 5.14 was placed in a gelatin capsule to provide a dose of 20 mg/kg to the dog. The dog was then orally administered the gelatin capsule containing the tilmicosin pharmaceutical composition of Example 5.14. Blood was then withdrawn from the dog at various time intervals and the serum concentration of tlmicosin determined by the following procedure: (i) A C-18 cartridge (commercially available from Waters Corp. of Milford, Mass.) was connected to a 20 mL syringe and to a single diaphragm vacuum pump (commercially available from Gast Manufacturing Inc. of Benton Harbor, Mich.). […]

Structures are written as SMILES.

As for `CC[C@H]1OC(=O)C[C@@H](O)[C@H](C)[C@@H](O[C@@H]2O[C@H](C)[C@@H](O)[C@H](N(C)C)[C@H]2O)[C@@H](CCN2C[C@H](C)C[C@H](C)C2)C[C@@H](C)C(=O)/C=C/C(C)=C/[C@@H]1CO[C@@H]1O[C@H](C)[C@@H](O)[C@@H](OC)[C@H]1OC` [Tilmicosin], the “time for which tilmicosin is provided in the blood of the dog” value was “at least 48 h”.

The values are drawn from patent US8361496B2, “Phospholipid gel compositions for drug delivery and methods of treating conditions using same” (Idexx Laboratories Inc., priority 2004, dated 2013).
